We go through one compound from EPA's ToxValDB 9.5 (doi:10.2903/j.efsa.2006.88r).

Converted amounts (≈) assume the structure as drawn. Some results are limits rather than exact numbers.

In one series the test system is Tagia sp. To be noted: mortality.
The next series concerns Oryctolagus sp. As to conditions: subchronic; oral; histopathology: nonneoplastic.
Another series concerns Daphnia magna. To be noted: chronic/long-term; duration: 21 days; reproduction.
A further series has as its system Canidae. To be noted: subchronic; oral; Dog Other; histopathology: nonneoplastic.
Another series concerns Apis mellifera. As to conditions: acute; duration: 48 hours; oral; unspecified; mortality.
The conditions of series [1]: acute; oral; unspecified; mortality.

`CSc1nnc(C(C)(C)C)c(=O)n1N` [Metribuzin]: the LC50 in the series with Tagia sp. (acute, duration: 14 days) is 427 mg/kg; in the series on Oncorhynchus mykiss (acute, duration: 96 hours, mortality) it was 74.6 µg/mL (≈ 348 µM); in the series on Bird (short-term, oral, feed, mortality), over 359 mg/kg-day. For the same compound, the NOEC in the series on Tagia sp. (chronic/long-term, duration: 8 weeks) is 5250 g/ha; with Oncorhynchus mykiss (chronic/long-term, duration: 95 days, growth), 4.4 mg/L; in the series on Daphnia magna, 0.32 mg/L; with Bird (reproductive) it was 28.3 mg/kg-day. Also, the NOAEL (as a rule, the highest dose or exposure tested at which no adverse effect was seen) with Oryctolagus sp. was 2 mg/kg-day; in the series on Rattus norvegicus (acute, clinical signs) it was over 2 mg/kg-day; in the series with Rattus norvegicus (chronic, duration: 2 years), 1.3 mg/kg-day; with Rattus norvegicus (reproduction developmental, body weight), 2.2 mg/kg-day; in the series with Rattus norvegicus (subchronic, oral, histopathology: nonneoplastic), 2 mg/kg-day; in the series with Canidae, 2 mg/kg-day. Moreover, the LD50 was 164 mg/kg in the series on Bird (acute, oral, unspecified, mortality); 166 µg/piece with Apis mellifera; 322 mg/kg in series [1].
